Values of other authors in patent US7820652B2, “Regimen for the administration of rifamycin-class antibiotics” (ActivBiotics Pharma, LLC, priority 2003, dated 2010).

## CO[C@H]1/C=C/O[C@@]2(C)Oc3c(C)c(O)c4c(=O)c(c5oc6cc(N7CCN(CC(C)C)CC7)cc(O)c6nc-5c4c3C2=O)NC(=O)/C(C)=C\C=C\[C@H](C)[C@H](O)[C@@H](C)[C@@H](O)[C@@H](C)[C@H](OC(C)=O)[C@@H]1C [rifalazil]
Clinical trials, twice-a-week dosing regimen
  number and severity of adverse reactions: clear dose-related incidence
Daily administration
  blood cell counts and blood hemoglobin: changes in blood cell counts
Daily dose regimen
  adverse reactions: severe adverse reactions
once- or twice-a-week dosing regimen
  incidence of adverse reactions: reduced, but did not eliminate
Mycobacterium species
  activity against mycobacterium species: effective
Mycobacterium species; once or twice-a-week dose regimen, U.S. Pat. No. 6,316,433
  efficacy against mycobacterium species: efficacious
